Data from US20120107398A1, “PHARMACEUTICAL COMPOSITIONS” (BOEHRINGER INGELHEIM INTERNATIONAL GMBH, priority 2010, published 2012).
Where a name gives a salt, the structure may show the parent alone.

Assay: Solubility of pioglitazone hydrochloride
Format: physicochemical
Description: For pioglitazone hydrochloride the intrinsic dissolution rates in aqueous media are only above 1000 μg/cm^2/min at pH 1, whereas for less acidic solutions (e.g. pH 2) the intrinsic dissolution rates are below 100 μg/cm^2/min. Therefore, the intrinsic dissolution rate of pioglitazone hydrochloride may be rate limiting for dissolution/absorption of the composition and pose an additional risk for providing similar dissolution profiles of pioglitazone hydrochloride in the composition to the original mono tablets (e.g. Actos) or combination market tablets (e.g. Duetact, Competact) and/or for matching bioequivalence with the original mono or combination market tablets.

CCc1ccc(CCOc2ccc(CC3SC(=O)NC3=O)cc2)nc1 (stereo not drawn) [pioglitazone hydrochloride]
solubility in strongly acidic media (strongly acidic media): slightly better solubility
solubility in water (water): practically insoluble
solubility in weak acidic and neutral to basic media (weak acidic and neutral to basic media): very poor solubility
